In the NIST ThermoML archive (doi:10.1021/je0340755):
± gives the expanded uncertainty stated by the source.

Experiment: xn = mol fraction of the nth substance listed
Conditions: 101.3 kPa, Liquid; for viscosity: Capillary tube (Ostwald / Ubbelohde) method

CC(O)CCO (stereo not given) [1,3-butanediol] + O
Conditions	mass density, 298.15 K [kg/m3]	mass density, 308.15 K [kg/m3]	mass density, 318.15 K [kg/m3]	speed of sound, 298.15 K [m/s]	speed of sound, 308.15 K [m/s]	speed of sound, 318.15 K [m/s]	viscosity, 298.15 K [mPa·s]	viscosity, 308.15 K [mPa·s]	viscosity, 318.15 K [mPa·s]
x2 = 0.045	1001 ± 0.35	995.14 ± 0.36	989.57 ± 0.37	1544.1 ± 6.4	1500.6 ± 6.2	1474.8 ± 6.1	92.65 ± 1	49.94 ± 0.24	28.95 ± 0.14
x2 = 0.1445	1003.36 ± 0.34	997.4 ± 0.34	991.66 ± 0.35	1569.1 ± 6.4	1520.3 ± 6.3	1492.5 ± 6.2	81.12 ± 0.7	43.43 ± 0.2	25.16 ± 0.13
x2 = 0.2499	1006.05 ± 0.33	999.97 ± 0.32	994.06 ± 0.33	1594.2 ± 6.5	1538.6 ± 6.3	1509.5 ± 6.2	67.64 ± 0.38	36.09 ± 0.17	20.85 ± 0.11
x2 = 0.3526	1008.62 ± 0.33	1002.45 ± 0.31	996.38 ± 0.32	1613.2 ± 6.6	1561.8 ± 6.4	1531.8 ± 6.3	54.19 ± 0.14	29.07 ± 0.14	16.64 ± 0.096
x2 = 0.4519	1011.07 ± 0.33	1004.84 ± 0.31	998.64 ± 0.3	1631.1 ± 6.6	1585.2 ± 6.5	1554.7 ± 6.4	41.72 ± 0.18	22.69 ± 0.12	12.79 ± 0.085
x2 = 0.5035	1012.39 ± 0.32	1006.14 ± 0.31	999.86 ± 0.29	1643.5 ± 6.7	1597 ± 6.5	–	35.66 ± 0.16	19.58 ± 0.1	10.94 ± 0.08
x2 = 0.5563	1013.79 ± 0.32	1007.52 ± 0.31	–	1652.1 ± 6.7	1609.3 ± 6.6	–	29.86 ± 0.14	16.57 ± 0.095	9.164 ± 0.076
x2 = 0.6507	1016.24 ± 0.32	1009.99 ± 0.3	–	1682 ± 6.8	1634.5 ± 6.6	–	20.66 ± 0.11	11.66 ± 0.081	6.346 ± 0.07
x2 = 0.7518	1017.77 ± 0.32	1011.69 ± 0.3	–	1702 ± 6.8	1666.3 ± 6.7	–	12.64 ± 0.083	7.207 ± 0.072	3.879 ± 0.066
x2 = 0.8477	1015.59 ± 0.31	1010.07 ± 0.29	–	1681.6 ± 6.8	1684 ± 6.8	–	6.82 ± 0.071	3.905 ± 0.066	2.11 ± 0.064
x2 = 0.9081	1010.74 ± 0.29	1005.92 ± 0.28	–	1673.4 ± 6.7	1665.1 ± 6.7	–	4.008 ± 0.066	2.337 ± 0.064	1.304 ± 0.063
x2 = 0.9152	1009.95 ± 0.29	1005.23 ± 0.27	–	1660.2 ± 6.7	1659.9 ± 6.7	–	3.719 ± 0.066	2.179 ± 0.064	1.226 ± 0.063
x2 = 0.9253	1008.73 ± 0.28	1004.18 ± 0.27	–	1645 ± 6.7	1657.3 ± 6.7	–	3.322 ± 0.065	1.965 ± 0.064	1.122 ± 0.063
x2 = 0.9355	1007.4 ± 0.28	1003.02 ± 0.27	–	1615.2 ± 6.6	1640.7 ± 6.6	–	2.937 ± 0.065	1.759 ± 0.064	1.024 ± 0.063
x2 = 0.9521	1005.03 ± 0.27	1000.96 ± 0.26	–	1610.8 ± 6.5	1619.1 ± 6.6	–	2.348 ± 0.064	1.45 ± 0.064	0.881 ± 0.063
x2 = 0.9543	1004.7 ± 0.27	1000.67 ± 0.26	–	1599.6 ± 6.5	1615.8 ± 6.6	–	2.273 ± 0.064	1.411 ± 0.064	0.864 ± 0.063
x2 = 0.9597	1003.86 ± 0.27	999.94 ± 0.26	–	1576.9 ± 6.4	1607.2 ± 6.5	–	2.093 ± 0.064	1.318 ± 0.063	0.824 ± 0.063
x2 = 0.9699	1002.22 ± 0.26	998.52 ± 0.26	–	1551.3 ± 6.4	1589 ± 6.5	–	1.765 ± 0.064	1.15 ± 0.063	0.753 ± 0.063
x2 = 0.9804	1000.46 ± 0.26	996.99 ± 0.26	–	1525.7 ± 6.3	1567.4 ± 6.4	–	1.444 ± 0.064	0.99 ± 0.063	0.69 ± 0.063
x2 = 0.9901	998.79 ± 0.26	995.53 ± 0.27	–	1519.4 ± 6.3	1544.6 ± 6.3	–	1.163 ± 0.063	0.851 ± 0.063	0.639 ± 0.063
x2 = 0.9924	998.38 ± 0.26	995.19 ± 0.27	–	1510.8 ± 6.2	1536.8 ± 6.3	–	1.098 ± 0.063	0.819 ± 0.063	0.628 ± 0.063
x2 = 0.9955	997.84 ± 0.26	994.71 ± 0.27	–	1527.6 ± 6.3	1530.7 ± 6.3	–	1.012 ± 0.063	0.778 ± 0.063	0.615 ± 0.063
